Test results: patent US6323196A, “Galanthamine derivatives as acetylcholinesterase inhibitors” (priority 1993, dated 2001)
Structures can show the parent of a compound that is named as a salt. Where two headings read alike, the source gives them in different places.

Experiments:
acetylcholinesterase = acetylcholinesterase (Homo sapiens, UniProt P22303); assay: Acetylcholinesterase Inhibition Assay (photometric method); format: biochemical
mice = format: in vivo; conditions: SDDA; dose 0.003 mg/kg, s.c.; retest after 24 hours
Protocol: This utility can also be ascertained by determining the ability of these compounds to restore cholinergically deficient memory in the Dark Avoidance Assay. In this assay mice are tested for their ability to remember an unpleasant stimulus for a period of 24 hours. A mouse is placed in a chamber that contains a dark compartment; a strong incandescent light drives it to the dark compartment, where arn electric shock is administered through metal plates on the floor. The animal is removed from the testing apparatus and tested again, 24 hours later, for the ability to remember the electric shock.
If scopolamine, an anticholinergic that is known to cause memory impairment, is administered before an animal's initial exposure to the test chamber, the animal re-enters the dark compartment shortly after being placed in the test chamber 24 hours later. This effect of scopolamine is blocked by an active test compounds, resulting in a greater interval before re-entry into the dark compartment.
The test results are expressed as the percent of a group of animals in which the effect of scopolanine is blocked, as manifested by an increased interval between being placed in the test chamber and re-entering the dark compartment. Results of Dark Avoidance Assay for some of the compounds of this invention are presented in Table II along with a result for a reference compounds.

Chain of acetylcholinesterase (P22303 32-614): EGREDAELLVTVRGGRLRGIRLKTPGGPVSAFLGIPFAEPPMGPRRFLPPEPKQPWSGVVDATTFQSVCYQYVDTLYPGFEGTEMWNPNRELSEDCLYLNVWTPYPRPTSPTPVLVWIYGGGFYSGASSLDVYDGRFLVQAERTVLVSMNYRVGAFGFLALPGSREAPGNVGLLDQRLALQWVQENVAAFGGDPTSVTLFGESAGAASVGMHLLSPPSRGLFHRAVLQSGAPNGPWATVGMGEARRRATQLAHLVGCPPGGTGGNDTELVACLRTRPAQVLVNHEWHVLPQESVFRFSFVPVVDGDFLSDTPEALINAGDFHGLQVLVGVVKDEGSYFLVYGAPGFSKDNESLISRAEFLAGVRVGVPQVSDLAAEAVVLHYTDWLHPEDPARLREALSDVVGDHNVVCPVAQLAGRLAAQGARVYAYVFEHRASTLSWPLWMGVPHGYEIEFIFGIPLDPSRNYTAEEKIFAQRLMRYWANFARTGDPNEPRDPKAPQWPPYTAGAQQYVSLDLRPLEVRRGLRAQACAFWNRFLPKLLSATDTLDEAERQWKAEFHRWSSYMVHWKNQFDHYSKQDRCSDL

| SMILES | IC50 (acetylcholinesterase) [µM] | IC50 (acetylcholinesterase; photometric method, read-out: IC50 CHE I (acetylcholinesterase inhibition)) [µM] | Percent of Animals with Scopolamine Induced Memory Deficit Reversal (mice) [%] |
| --- | --- | --- | --- |
| CNC(=O)Oc1ccc2c3c1O[C@H]1C[C@@H](OC(=O)C(C)C)C=C[C@@]31CCN(C)C2 [6-O-Demethy-6-O-(methylaminocarbonyl)-3-O-(propan-2-yl-carbonyl)galanthamine Hydrochloride] | 0.047 | – | – |
| CNC(=O)Oc1ccc2c3c1O[C@H]1C[C@@H](O)C=C[C@@]31CCN(C)C2 [6-O-Demethyl-6-O-(methylaminocarbonyl)galanthamine] | – | 0.002 | 27 |
